Converted amounts (≈) assume the structure as drawn. Where a SMILES comes first, the peptide text is derived from it. [ ]: non-standard residue; d: D form. The star is where a group is joined. Palmitoyl = CCCCCCCCCCCCCCCC(=O)*; Lauroyl = CCCCCCCCCCCC(=O)*; Pentanoyl = CCCCC(=O)*; AEEA = NCCOCCOCC(=O)O; Ahx = NCCCCCC(=O)O; βAla = NCCC(=O)O
What was measured:
[1] = test system: C. albicans (CCM 8186) biofilm; assay: Biofilm eradication assay, pre-formed 24 h old biofilm (MTT); format: cell-based, Candida albicans; details: C. albicans pre-formed 24 h old biofilm, 24 h treatment
Protocol: In the case of yeasts, the overnight culture of C. albicans in Sabouraud dextrose broth (SB) was used for inoculum preparation. Similar to above, 5 mL of 24 h culture was centrifuged, washed with PBS and then suspended in sterile RPMI-1640 medium (with L-glutamine, without sodium bicarbonate) supplemented with 2% glucose (RPMI-1640/+G) yielding the amount of about 1 × 10^7 cells per ml. Subsequently, 200 µL of yeast suspension was transferred into each well of a microtiter plate, and it was incubated stationary for the next 24 h at 35 °C.
After that, each well of the plates containing bacterial or fungi biofilm was washed three times with PBS in order to remove all non-adherent cells. Then, peptide solutions of 200 µL ranging from 50 to 0,39 µg/mL prepared in TSB +/G in the case of experiments on S. aureus biofilm, and (RPMI-1640/+G) in the case of C. alibcans, were prepared and transferred into the microtiter plates. After the addition of the peptides, the experiments were continued for the next 24 h.
The reduction in biofilm viability was analyzed by means of MTT assay. Briefly, 20 μL of MTT solution (5 mg/mL in PBS) was added to prewashed wells with exchanged medium (180 μL of fresh medium) wells containing bacterial/yeast biofilms. Plates were then incubated in the dark for the next 3 h at 37 °C. After that time, the medium was replaced with 6 mM HCl in isopropanol and, when the reduced MTT was fully dissolved, the plates were read at 570 nm. Activity against fully developed 24 h old biofilm was described as biofilm eradication concentration (BEC50 expressed in µg/mL), which corresponded to the concentration of the compound able to reduce 50% of biofilm viability compared with the growth control.

[2] = test system: P. aeruginosa PCM 499; assay: MIC, broth microdilution; format: cell-based, Pseudomonas aeruginosa; details: P. aeruginosa PCM 499, 24 h
Description: (§1) Escherichia coli (PCM 2057 = ATCC 25922), Staphylococcus aureus (PCM 2054 = ATCC 25923), Staphylococcus epidermidis (PCM 2118 = ATCC 14990), Bacillus subtilis (PCM 2224 = ATCC 9799), Bacillus cereus (PCM 482 = ATCC 10702) and Pseudomonas aeruginosa (PCM 499 = ATCC 10145) were obtained from the Polish Collection of Microorganisms. Fungi strains Candida albicans (CCM 8186 = CNTC 49/64), Candida glabrata (CCM 8270 = ATCC 90030), Candida parapsilosis (CCM 8260 = ATCC 22019) and Candida krusei (CCM 8271 = ATCC 6258) were acquired from the Czech Collection of Microorganisms. S. aureus USA300 (wild type strain), the reference strain of Klebsiella pneumoniae (ATCC 13883) and clinical isolates of Pseudomonas aeruginosa (PA1, PA2) collected from nonrelated patients admitted to the Stefan Zeromski Specialist Municipal Hospital in Krakow (Poland) were kindly provided by the research group of the Department of Microbiology, Faculty of Biochemistry, Biophysics and Biotechnology, Jagiellonian University, Krakow, Poland.
(§2) Luria-Bertani broth (LB) and Sabouraud Dextrose broth (SB) (Biocorp, Poland) were used for cultivation of bacteria and fungi strains, respectively. The antimicrobial activity of the peptides were analyzed through determination of MIC (minimal inhibitory concentration) parameters according to Clinical and Laboratory Standards (CLSI) guidelines developed for aerobic bacteria and yeasts, respectively. Mueller-Hinton broth (MHB) was used as the working medium for all bacterial strains, while in the case of fungi, RPMI-1640 (with L-glutamine, without sodium bicarbonate) growth medium buffered with MOPS (morpholinepropanesulfonic acid) and supplemented with 2% glucose was used. Inoculum was prepared from freshly grown cultures of microorganisms at their exponential phase of growth. […] Plates were then incubated for 24 h at 37 °C in the case of bacteria and at 35 °C in the case of fungi. After that time, absorbance was read at 590 nm with a Perkin Elmer plate reader. Cultures without peptide were treated as positive control, while uninoculated media were defined as negative control. All measurements were run at least in triplicate.

[3] = test system: keratinocytes (HaCaT); assay: Cytotoxicity, MTT assay; format: cell-based, human; details: 24 h; for effect on cell viability (in words): keratinocytes, 1 to 50 µg/mL
Summary of the method: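 HaCaT keratinocytes and primary human dermal fibroblasts (three healthy donors) seeded 24 h, then exposed to peptides at 1–50 μg/mL final in serum- and antibiotic-free DMEM for 24 h at 37 °C. Viability by MTT reduction (3 h), formazan dissolved in HCl/isopropanol, absorbance 570 nm.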

[4] = test system: B. cereus PCM 482; assay: MIC, broth microdilution; format: cell-based, Bacillus cereus; details: B. cereus PCM 482, 24 h
Description: as §1, §2

| SMILES | BEC50 [1] | MIC100 [2] | IC50 ([3]; Keratinocytes (HaCaT), MTT) | effect on cell viability (in words) ([3]; MTT) | MIC100 [4] | IC50 [3] |
| --- | --- | --- | --- | --- | --- | --- |
| CC[C@H](C)[C@H](NC(=O)COCCOCCNC(=O)[C@H](Cc1c[nH]cn1)NC(=O)CCNC(=O)CCCCCN)C(=O)N[C@@H](CCCCN)C(=O)N[C@@H](CCCCN)C(=O)N[C@H](C(=O)N[C@@H](CC(C)C)C(=O)N[C@@H](CO)C(=O)N[C@@H](CCCCN)C(=O)N[C@H](C(=O)N[C@@H](CCCCN)C(=O)N[C@@H](CCCCN)C(=O)N[C@@H](CC(C)C)C(=O)N[C@@H](CC(C)C)C(N)=O)[C@@H](C)CC)[C@@H](C)CC [AHX-CAR-PEG-DK5] (H-[Ahx][βAla]H[AEEA]IKKILSKIKKLL-NH2) | 20 µg/mL | >50 µg/mL | >50 µg/mL | neutral or even pro-proliferative | >50 µg/mL |  |
| CC[C@H](C)[C@H](NC(=O)CCCCCN)C(=O)N[C@@H](CCCCN)C(=O)N[C@@H](CCCCN)C(=O)N[C@H](C(=O)N[C@@H](CC(C)C)C(=O)N[C@@H](CO)C(=O)N[C@@H](CCCCN)C(=O)N[C@H](C(=O)N[C@@H](CCCCN)C(=O)N[C@@H](CCCCN)C(=O)N[C@@H](CC(C)C)C(=O)N[C@@H](CC(C)C)C(N)=O)[C@@H](C)CC)[C@@H](C)CC [AHX-DK5] (H-[Ahx]IKKILSKIKKLL-NH2) | 25 µg/mL | 25 µg/mL (≈ 16.3 µM) | >50 µg/mL | moderately toxic | 50 µg/mL (≈ 32.5 µM) |  |
| CCCCC(=O)NCCC(=O)N[C@@H](Cc1c[nH]cn1)C(=O)NCCOCCOCC(=O)N[C@H](C(=O)N[C@@H](CCCCN)C(=O)N[C@@H](CCCCN)C(=O)N[C@H](C(=O)N[C@@H](CC(C)C)C(=O)N[C@@H](CO)C(=O)N[C@@H](CCCCN)C(=O)N[C@H](C(=O)N[C@@H](CCCCN)C(=O)N[C@@H](CCCCN)C(=O)N[C@@H](CC(C)C)C(=O)N[C@@H](CC(C)C)C(N)=O)[C@@H](C)CC)[C@@H](C)CC)[C@@H](C)CC [C5-CAR-PEG-DK5] ({Pentanoyl-βAla}-H[AEEA]IKKILSKIKKLL-NH2) | 20 µg/mL | >50 µg/mL | >50 µg/mL | neutral or even pro-proliferative | >50 µg/mL |  |
| CCCCCCCCCCCC(=O)NCCC(=O)N[C@@H](Cc1c[nH]cn1)C(=O)NCCOCCOCC(=O)N[C@H](C(=O)N[C@@H](CCCCN)C(=O)N[C@@H](CCCCN)C(=O)N[C@H](C(=O)N[C@@H](CC(C)C)C(=O)N[C@@H](CO)C(=O)N[C@@H](CCCCN)C(=O)N[C@H](C(=O)N[C@@H](CCCCN)C(=O)N[C@@H](CCCCN)C(=O)N[C@@H](CC(C)C)C(=O)N[C@@H](CC(C)C)C(N)=O)[C@@H](C)CC)[C@@H](C)CC)[C@@H](C)CC [C12-CAR-PEG-DK5] ({Lauroyl-βAla}-H[AEEA]IKKILSKIKKLL-NH2) | 12.5 µg/mL | 12.5 µg/mL (≈ 6.38 µM) | 10 µg/mL (≈ 5.1 µM) |  | >50 µg/mL |  |
| CCCCCCCCCCCCCCCC(=O)NCCC(=O)N[C@@H](Cc1c[nH]cn1)C(=O)NCCOCCOCC(=O)N[C@H](C(=O)N[C@@H](CCCCN)C(=O)N[C@@H](CCCCN)C(=O)N[C@H](C(=O)N[C@@H](CC(C)C)C(=O)N[C@@H](CO)C(=O)N[C@@H](CCCCN)C(=O)N[C@H](C(=O)N[C@@H](CCCCN)C(=O)N[C@@H](CCCCN)C(=O)N[C@@H](CC(C)C)C(=O)N[C@@H](CC(C)C)C(N)=O)[C@@H](C)CC)[C@@H](C)CC)[C@@H](C)CC [C16-CAR-PEG-DK5] ({Palmitoyl-βAla}-H[AEEA]IKKILSKIKKLL-NH2) | 15 µg/mL | >50 µg/mL | 1 µg/mL (≈ 0.496 µM) |  | >50 µg/mL |  |
| CC[C@H](C)[C@H](NC(=O)COCCOCCNC(=O)[C@H](Cc1c[nH]cn1)NC(=O)CCN)C(=O)N[C@@H](CCCCN)C(=O)N[C@@H](CCCCN)C(=O)N[C@H](C(=O)N[C@@H](CC(C)C)C(=O)N[C@@H](CO)C(=O)N[C@@H](CCCCN)C(=O)N[C@H](C(=O)N[C@@H](CCCCN)C(=O)N[C@@H](CCCCN)C(=O)N[C@@H](CC(C)C)C(=O)N[C@@H](CC(C)C)C(N)=O)[C@@H](C)CC)[C@@H](C)CC [CAR-PEG-DK5] (H-[βAla]H[AEEA]IKKILSKIKKLL-NH2; N-terminus and C-terminus assumed) | >50 µg/mL | 50 µg/mL (≈ 28.1 µM) |  |  | >50 µg/mL | >50 µg/mL |
| CCCCC(=O)N[C@H](C(=O)N[C@@H](CCCCN)C(=O)N[C@@H](CCCCN)C(=O)N[C@H](C(=O)N[C@@H](CC(C)C)C(=O)N[C@@H](CO)C(=O)N[C@@H](CCCCN)C(=O)N[C@H](C(=O)N[C@@H](CCCCN)C(=O)N[C@@H](CCCCN)C(=O)N[C@@H](CC(C)C)C(=O)N[C@@H](CC(C)C)C(N)=O)[C@@H](C)CC)[C@@H](C)CC)[C@@H](C)CC [Compound C5-DK5] (Pentanoyl-IKKILSKIKKLL-NH2) | 12.5 µg/mL | 25 µg/mL (≈ 16.6 µM) | 35 µg/mL (≈ 23.2 µM) | moderately toxic | 12.5 µg/mL (≈ 8.29 µM) |  |
| CCCCCCCCCCCC(=O)N[C@H](C(=O)N[C@@H](CCCCN)C(=O)N[C@@H](CCCCN)C(=O)N[C@H](C(=O)N[C@@H](CC(C)C)C(=O)N[C@@H](CO)C(=O)N[C@@H](CCCCN)C(=O)N[C@H](C(=O)N[C@@H](CCCCN)C(=O)N[C@@H](CCCCN)C(=O)N[C@@H](CC(C)C)C(=O)N[C@@H](CC(C)C)C(N)=O)[C@@H](C)CC)[C@@H](C)CC)[C@@H](C)CC [Compound C12-DK5] (Lauroyl-IKKILSKIKKLL-NH2) |  | 12.5 µg/mL (≈ 7.78 µM) | 1 µg/mL (≈ 0.623 µM) |  | 12.5 µg/mL (≈ 7.78 µM) |  |
| CCCCCCCCCCCCCCCC(=O)N[C@H](C(=O)N[C@@H](CCCCN)C(=O)N[C@@H](CCCCN)C(=O)N[C@H](C(=O)N[C@@H](CC(C)C)C(=O)N[C@@H](CO)C(=O)N[C@@H](CCCCN)C(=O)N[C@H](C(=O)N[C@@H](CCCCN)C(=O)N[C@@H](CCCCN)C(=O)N[C@@H](CC(C)C)C(=O)N[C@@H](CC(C)C)C(N)=O)[C@@H](C)CC)[C@@H](C)CC)[C@@H](C)CC [Compound C16-DK5] (Palmitoyl-IKKILSKIKKLL-NH2) | 12.5 µg/mL | >50 µg/mL | 5 µg/mL (≈ 3.01 µM) |  | >50 µg/mL |  |

From paper PMC8269107, “Lipidation of Temporin-1CEb Derivatives as a Tool for Activity Improvement, Pros and Cons of the Approach” (International Journal of Molecular Sciences, 2021)
